Experiments:
[1] = solubility in water of trimetazidine dihydrochloride; type: physicochemical; conditions: read-out: solubilité du dichlorhydrate dans l'eau
Description: Le poids moléculaire de la trimétazidine sous forme de base est de 266,33 et la solubilité du dichlorhydrate dans l'eau supérieure à 1000 mg/ml. De ce fait, il était très difficile d'obtenir des comprimés matriciels contrôlant la libération du principe actif sur plus de 16 heures. Ce problème a été résolu par l'utilisation du système réservoir décrit dans la présente invention.

[2] = immediate-release oral forms; background statement; cited from earlier work
[3] = plasticizer added at 20 % to Eudragit RS® film; measured with chlorhydrate de phénylpropanolamine; cited from earlier work
[4] = in vitro dissolution / release of trimetazidine dihydrochloride from reservoir forms; type: physicochemical; conditions: release of trimetazidine dihydrochloride through a film containing this plasticizer (figure 1)

Compound	solubility [1] [mg/mL]	demi-vie plasmatique [2] [heures]	Perméabilité [3] [mg.cm⁻².h⁻¹]	temps de latence [4]
COc1ccc(CN2CCNCC2)c(OC)c1OC [dichlorhydrate de trimétazidine, 1-(2,3,4-triméthoxybenzyl)pipérazine]	> 1000	< 6		
CCOC(=O)c1ccccc1C(=O)OCC [Diéthylphtalate]			14.8	
CC(=O)OCC(COC(C)=O)OC(C)=O [Triacétine]			6.2	très long qui peut atteindre quatre heures
